Results: patent publication US20220096641A1, “PYRROLOBENZODIAZEPINE DIMER COMPOUND WITH IMPROVED SAFETY AND USE THEREOF” (priority 2019, published 2022)
Like-named read-outs stand apart in the source and are kept apart here. Square brackets hold non-standard residues; d marks the D form. Peptide text beside a SMILES is read from it. * marks the point of attachment. Dolaproine = CO[C@@H]([C@@H]1CCCN1)[C@@H](C)C(=O)O; Dil = CC[C@H](C)[C@H](NC)[C@@H](CC(=O)O)OC; X1 = C[C@@H](N*)[C@@H](O)c1ccccc1; NMeV = CN[C@H](C(=O)O)C(C)C

Experiments:
[1] = test system: MCF-7 (HER2 negative to normal); experiment: In vitro cytotoxicity (cell proliferation inhibition, SRB), MCF-7; format: cell-based; details: Homo sapiens
Procedure: (§1) The cell proliferation inhibitory activity of the drugs and ADCs presented in Tables 2 and 3 below on cancer cell lines was measured. As the cancer cell lines, commercially available human breast cancer cell lines MCF-7 (HER2 negative to normal), SK-BR3 (HER2 positive), and JIMT-1 (HER2 positive) were used. […] In a 96-well plate, 5,000 SK-BR3, 5,000 MCF-7, and 2,500 JIMT-1 per well were seeded, cultured for 24 hours, and then treated with ADCs at a concentration of 25 fM to 10 nM (5-fold serial dilutions) and drugs at a concentration of 25 fM to 10 nM (5-fold serial dilutions) or 1 fM to 100 nM (10-fold serial dilutions).

JIMT-1 (HER2 positive) = experiment: In vitro cytotoxicity (cell proliferation inhibition, SRB), JIMT-1; format: cell-based; details: Homo sapiens
Procedure: as §1

SK-BR3 (HER2 positive) = experiment: In vitro cytotoxicity (cell proliferation inhibition, SRB), SK-BR3; format: cell-based; details: Homo sapiens
Procedure: as §1

[2] = test system: MDA-MB-468 human triple-negative breast cancer cell line (HER2-negative); experiment: Bystander effect experiment, MDA-MB-468 alone; details: for Cell viability (%) MDA-MB-468: single concentration of 1 nM, 144 hours, SRB; for viability at 0.001 µM: Homo sapiens, MDA-MB-468, 144 h, read-out: Cell viability (%) MDA-MB-468
Procedure: (§2) The cell proliferation inhibitory activity of the drugs and ADC presented in Table 4 below on cancer cell lines was measured. The SK-BR3 human breast cancer cell line (procured from Korea Cell Line Bank (KCLB)) was used as a HER2-positive cell line, and the MDA-MB-468 human triple-negative breast cancer cell line (procured from ATCC) was used as a HER2-negative cell line. […] All ADCs used in the experiment were anti-HER2 ADCs. In a 96-well plate, 6,000 SK-BR3, 6,000 MDA-MB-468, or 3,000 SK-BR3 and 3,000 MDA-MB-468 per well were seeded together, cultured for 24 hours, and then treated with each drug and ADC at a single concentration of 1 nM. After 144 hours, the number of viable cells was quantified using SRB (Sulforhodamine B) dye.

[3] = test system: SK-BR3 human breast cancer cell line (HER2-positive); experiment: Bystander effect experiment, SK-BR3 alone; details: for Cell viability (%) SK-BR3: single concentration of 1 nM, 144 hours, SRB; for viability at 0.001 µM: Homo sapiens, SK-BR-3, 144 h, read-out: Cell viability (%) SK-BR3
Procedure: as §2

[4] = test system: Co-culture SK-BR3:MDA-MB-468 = 1:1; details: free toxin control materials; cited from earlier work
[5] = test system: Co-culture SK-BR3:MDA-MB-468 = 1:1; experiment: Bystander effect experiment, co-culture; details: for Cell viability (%) Co-culture (SK-BR3:MDA-MB-468 = 1:1): single concentration of 1 nM, 144 hours, SRB; for viability at 0.001 µM: Homo sapiens, 144 h, read-out: Cell viability (%) Co-culture (SK-BR3:MDA-MB-468 = 1:1)
Procedure: as §2

[6] = Rat pre-tox experiment (single dose toxicity); format: in vivo, SD rats; details: single tail vein dose; for inhibition of weight gain: SG2057 statement for 0.02 mg/kg and 0.04 mg/kg groups
Procedure: Twenty one 8-week-old male SD rats were divided into 7 groups of 3 rats each, the test material was administered thereto through the tail vein at 2 mL/kg one time, and the weight/death/clinical symptoms and the like thereof were observed. The body weight was measured two times a week, and death and clinical symptoms were observed daily. Four weeks after administration, planned slaughter was performed to examine the gross findings of organs. The results are as illustrated in FIG. 3.

[7] = MCF7, 144 h, read-out: IC50 (nM) MCF7, pyrrolobenzodiazepine derivatives (free drugs), 144 hours, SRB
[8] = JIMT-1, 144 h, read-out: IC50 (nM) JIMT-1, pyrrolobenzodiazepine derivatives (free drugs), 144 hours, SRB
[9] = SK-BR-3, 144 h, read-out: IC50 (nM) SK-BR3, pyrrolobenzodiazepine derivatives (free drugs), 144 hours, SRB
[10] = first of three dose groups (dose not given)
[11] = second of three dose groups (apparently 0.02 mg/kg)
[12] = third of three dose groups (apparently 0.04 mg/kg)

C=C1C[C@H]2C=Nc3cc(OCc4cc(COc5cc6c(cc5OC)C(=O)N5CC(=C)C[C@H]5C=N6)cc(OCCOCCOCCOCC(=O)OC)c4)c(OC)cc3C(=O)N2C1 [Compound 33]
IC50 [1, 7]: > 100 nM | IC50 (JIMT-1 (HER2 positive); [8]): > 100 nM | IC50 (SK-BR3 (HER2 positive); [9]): > 100 nM

CC[C@H](C)[C@@H]([C@@H](CC(=O)N1CCC[C@H]1[C@H](OC)[C@@H](C)C(=O)N[C@@H](Cc1ccccc1)C(=O)O)OC)N(C)C(=O)[C@@H](NC(=O)[C@@H](NC)C(C)C)C(C)C [MMAF] (H-[NMeV]V[Dil][Dolaproine]F-OH)
Cell viability (%) MDA-MB-468 [2]: 105% | Cell viability (%) SK-BR3 [3]: 101% | bystander effect (already known) [4]: known to exhibit no bystander effect | Cell viability (%) Co-culture (SK-BR3:MDA-MB-468 = 1:1) [5]: 99%

C=C1C[C@H]2C=Nc3cc(OCCCCCOc4cc5c(cc4OC)C(=O)N4CC(=C)C[C@H]4C=N5)c(OC)cc3C(=O)N2C1 [SG2057]
viability at 0.001 µM [2]: 4% | body weight at end of 4th week as compared to body weight at time of administration [6, 10]: 167% | body weight at end of 4th week as compared to body weight at time of administration [6, 11]: 148% | inhibition of weight gain [6]: significantly inhibited weight gain | body weight at end of 4th week as compared to body weight at time of administration [6, 12]: 115% | viability at 0.001 µM [3]: 7% | viability at 0.001 µM [5]: 6% | IC50 ([1]; MCF7, 144 h, read-out: IC50 (nM) MCF7, comparison of anti-HER2 ADCs, 144 hours, SRB): 0.06 nM | IC50 [1, 7]: 0.05 nM | IC50 (JIMT-1 (HER2 positive); JIMT-1, 144 h, read-out: IC50 (nM) JIMT-1, comparison of anti-HER2 ADCs, 144 hours, SRB): 0.05 nM | IC50 (JIMT-1 (HER2 positive); [8]): 0.04 nM | IC50 (SK-BR3 (HER2 positive); SK-BR-3, 144 h, read-out: IC50 (nM) SK-BR3, comparison of anti-HER2 ADCs, 144 hours, SRB): 0.02 nM | IC50 (SK-BR3 (HER2 positive); [9]): 0.01 nM

C=C1CC2CNc3cc(OCc4cc(COc5cc6c(cc5OC)C(=O)N5CC(=C)C[C@H]5CN6)cc(OCCOCCOCCOCC(=O)O)c4)c(OC)cc3C(=O)N2C1 (some centres unmarked) [Compound 32]
viability at 0.001 µM [2]: 101% | body weight at end of 4th week as compared to body weight at time of administration [6, 10]: 171% | body weight at end of 4th week as compared to body weight at time of administration [6, 11]: 164% | inhibition of weight gain [6]: very insignificant | body weight at end of 4th week as compared to body weight at time of administration [6, 12]: 161% | viability at 0.001 µM [3]: 98% | viability at 0.001 µM [5]: 98% | bystander effect ([5]; conclusion from mono- and co-culture viability at 1 nM): do not exhibit a bystander effect | IC50 ([1]; MCF7, pyrrolobenzodiazepine derivatives (free drugs), 144 hours, SRB, read-out: IC50 (nM) MCF7): > 100 nM | IC50 (JIMT-1 (HER2 positive); JIMT-1, pyrrolobenzodiazepine derivatives (free drugs), 144 hours, SRB, read-out: IC50 (nM) JIMT-1): > 100 nM | IC50 (SK-BR3 (HER2 positive); SK-BR-3, pyrrolobenzodiazepine derivatives (free drugs), 144 hours, SRB, read-out: IC50 (nM) SK-BR3): 18.2 nM

CC[C@H](C)[C@@H]([C@@H](CC(=O)N1CCC[C@H]1[C@H](OC)[C@@H](C)C(=O)N[C@H](C)[C@@H](O)c1ccccc1)OC)N(C)C(=O)[C@@H](NC(=O)[C@@H](NC)C(C)C)C(C)C [MMAE] (H-[NMeV]V[Dil][Dolaproine]-X1)
Cell viability (%) MDA-MB-468 [2]: 14% | Cell viability (%) SK-BR3 [3]: 12% | bystander effect (already known) [4]: known to exhibit a bystander effect | Cell viability (%) Co-culture (SK-BR3:MDA-MB-468 = 1:1) [5]: 12%

C=C1C[C@H]2C=Nc3cc(OCc4cc(COc5cc6c(cc5OC)C(=O)N5CC(=C)C[C@H]5C=N6)cc(OCCOCCOCCOCC(=O)NC(CC(=O)OC)CC(=O)OC)c4)c(OC)cc3C(=O)N2C1 [Compound 53]
IC50 [1, 7]: 11.8 nM | IC50 (JIMT-1 (HER2 positive); [8]): 8.93 nM | IC50 (SK-BR3 (HER2 positive); [9]): 2.52 nM

C=C1C[C@H]2C=Nc3cc(OCc4cc(COc5cc6c(cc5OC)C(=O)N5CC(=C)C[C@H]5C=N6)cc(OCCOCCOCCOCC(=O)NC(CC(=O)O)CC(=O)O)c4)c(OC)cc3C(=O)N2C1 [Compound 52]
IC50 [1, 7]: > 100 nM | IC50 (JIMT-1 (HER2 positive); [8]): > 100 nM | IC50 (SK-BR3 (HER2 positive); [9]): > 100 nM
